The test system of data set [1] is IL-1 induced COX-2 expression. Put plainly: MIF-dependent IL-1 induced fibroblast cyclooxygenase-2 expression (flow cytometry). The class given is cell-based, human. Conditions: for Mean % inhibition COX2 expression: S112 fibroblasts, IL-1 0.1 ng/ml, 6 h. The source says: The activity of the compounds of formula (I) were further studied in a bioassay utilising MIF-dependent activation of human dermal fibroblasts. Sampey et al have shown that induction of the expression of cyclooxygenase-2 (COX-2) by the cytokine interleukin 1 (IL-1) is dependent upon the presence of MIF, i.e. can be prevented using specific anti-MIF monoclonal antibody ^(17). IL-1-induced COX-2 expression is therefore a MIF-dependent event.
S112 human dermal fibroblasts were propagated in RPMI/10% foetal calf serum (FCS). Prior to experimentation, cells were seeded at 2×10^5 cells/ml in RPMI/0.1% BSA for 18 hours. […] After 6 hours, cells were collected and intracellular COX-2 protein determined by permeabilisation flow cytometry, as described by Sampey et al ^(18). Cells permeabilised with 0.2% saponin were sequentially labelled with a mouse anti-human COX-2 monoclonal antibody and with sheep-anti-mouse F(ab)2 fragment labelled with fluoroscein isothiocyanate. Cellular fluorescence was determined using a flow cytometer. At least 5000 events were counted for each reading, each of which was performed in duplicate, and the results expressed in mean fluorescence intensity (MFI) after subtraction of negative control-labelled cell fluorescence.
In Table 2 and FIG. 2, the effect of each concentration of 2-(2-hydroxyethoxy)-2-(4-hydroxy-3-methylphenyl)-1,3-dioxolane (Compound 1) was determined by subtracting the IL-1+ compound-treated cell MFI from the IL-1-treated cell MFI, and expressed as % inhibition.
For orientation: In flow cytometry, cells or beads pass a laser one at a time.

Data set [2] has as its system IL-1 induced COX-2 expression. Put plainly: Combination of MIF-antagonist with glucocorticoid: IL-1 induced fibroblast COX-2 expression. The class given is cell-based, human. On the procedure:
S112 human dermal fibroblasts were propagated in RPMI/10% foetal calf serum (FCS). Prior to experimentation, cells were seeded at 2×10^5 cells/ml in RPMI/0.1% BSA for 18 hours. Cells were treated with compound at 1-100 μM and 30 minutes later with recombinant human IL-1 (0.1 ng/ml). After 6 hours, cells were collected and intracellular COX-2 protein determined by permeabilisation flow cytometry, as described by Sampey et al ^(18). Cells permeabilised with 0.2% saponin were sequentially labelled with a mouse anti-human COX-2 monoclonal antibody and with sheep-anti-mouse F(ab)2 fragment labelled with fluoroscein isothiocyanate. Cellular fluorescence was determined using a flow cytometer. At least 5000 events were counted for each reading, each of which was performed in duplicate, and the results expressed in mean fluorescence intensity (MFI) after subtraction of negative control-labelled cell fluorescence.
The above in vitro assay (Biological Example 2) for analysing the effect of MIF antagonists on IL-1 induced COX-2 expression was performed using 2-(2-hydroxyethoxy)-2-(4′-hydroxy-3′-methylphenyl)-1,3-dioxolane (Compound 1) (50 μM), dexamethasone (1 nM) or a combination of dexamethasone (1 nM) and Compound 1 (50 μM). COX-2 expression was expressed as the mean fluorescence intensity (MFI) as measured by flow cytometry, after deduction of the MFI for control-labelled samples, as described by Sampey et al. ^(18).

Data set [3] has as its system S112 human dermal fibroblasts. Put plainly: Cytotoxicity: apoptosis by annexin V and propidium iodide flow cytometry. The class given is cell-based. Particulars: 50 μM versus control-treated cells; FIG. 7. An excerpt: A valuable characteristic of a therapeutic material is a lack of toxicity. The compounds of formula (I) may have low toxicity towards cells. To examine this in vitro, the ability of 2-(2-hydroxyethoxy)-2-(4-hydroxy-3-methylphenyl)-1,3-dioxolane (Compound 1) to induce apoptosis (“programmed cell death) was investigated. A lack of cytotoxicity would be evidenced by the finding of equivalent proportions of apoptotic and viable cells in control- and compound-treated cells.
To examine the cytotoxicity of compounds of formula (I), S112 human dermal fibroblasts were exposed to a therapeutic concentration (50 μM) of 2-(2-hydroxyethoxy)-2-(4-hydroxy-3-methylphenyl)-1,3-dioxolane (Compound 1) or vehicle (control) and analysed for apoptosis by flow cytometric analysis of annexin V and propidium iodide staining, as described by Leech et al. ^(19). Toxicity was assessed by analysis of apoptosis using flow cytometric detection of cell surface Annexin V binding and propidium iodide staining. At least 5000 events were analysed for each experiment. Cells positive for both Annexin V and propidium iodide were designated as apoptotic and cells negative for both Annexin V and propidium iodide were designated as viable. Results are expressed as the percentage (%) of cells with each of these labels.

The test system of data set [4] is MIF-induced proliferation of S112 human fibroblasts. Briefly: MIF-induced human fibroblast proliferation (3H-thymidine incorporation). The class given is cell-based. How it is done: The activity of a compound of formula (I) was studied in a bioassay utilising MIF-induced proliferation of human dermal fibroblasts. […] S112 human dermal fibroblasts were propagated in RPMI/10% foetal calf serum (FCS). Prior to experimentation, cells were seeded at 10^5 cells/ml in RPMI/0.1% BSA for 18 hours. Cells were treated with recombinant human macrophage migration inhibitory factor (MIF) 50 ng/ml and/or a compound of the invention at a concentration of 1 nM. The compound was combined with MIF at time point −30 minutes, prior to adding to cell culture at time point zero. At time point zero, culture medium was replaced with RPMI/10% FCS and treatments administered. At time point 30 hours, cells were pulsed with 1 μCi ^3H-thymidine. At time point 48 hours, cells were harvested using a semi-automated cell harvester. The radioactivity incorporated into DNA was determined by liquid scintillation counting, with results expressed as ^3H-thymidine incorporation.

Data set [5] concerns antigen-specific T cell activation. Put plainly: MIF-dependent antigen-specific T cell activation (splenocytes, 3H-thymidine). The class given is cell-based, mouse. Conditions: 100 nM-10 μM; mBSA 10 μg/ml; spleen cells of immunized C57Bl/6 mice; P<0.05; FIG. 5. The source says:
The activity of compounds of formula (I) was further studied in a bioassay utilising MIF-dependent activation of murine T cell activation. The activation of T lymphocytes in response to exposure to a recall antigen is known to be dependent on the presence of MIF, i.e. can be prevented using specific anti-MIF monoclonal antibody^(7). Antigen-induced T cell activation is therefore a MIF-dependent phenomenon.
Splenocytes were obtained by Hank's buffered saline flushing of spleens obtained from C57Bl/6 mice previously immunized with methylated bovine serum albumin (mBSA, Sigma Chemical Co., Castle Hill, Australia). Mice were immunized on day 0 with 200 μg mBSA emulsified in 0.2 ml of Freund's complete adjuvant (FCA) injected subcutaneously into the flank skin. On day 7, the mice received 100 μg mBSA/0.1 ml FCA by intradermal injection at the base of the tail. Spleens were removed on day 14 after first immunisation and a single cell suspension was prepared in DMEM containing 5% FCS and 0.05% 2-mercaptoethanol. […] The T cell proliferation response was determined by measuring the amount of [^3H] thymidine incorporation during the final 18 hr. The cells were harvested and radioactivity incorporation into the DNA was measured with a Wallac 1409 liquid scintillation counter (Pharmacia, Turku, Finland).

Marks after values point to notes of the source that are not given here.

The record followed here is patent publication US7863313B2, “Methods for the treatment of inflammatory diseases” (Cortical PTY LTD, priority 2003, dated 2011).

Turning to `Cc1cc(C2(OCCO)OCCO2)ccc1O` [Compound 1, 2-(2-hydroxyethoxy)-2-(4-hydroxy-3-methylphenyl)-1,3-dioxolane], the “Mean % inhibition COX2 expression” value in data set [1] (0.01 μM) was 10.5%; in data set [1] (0.1 μM), 13.2%; in data set [1] (1 μM), 15.6* %; in data set [1] (10 μM), 19.5* %; in data set [1] (50 μM) it was 31.4* %. For the same compound, in data set [1] (50 μM, P<0.01, FIG. 2), the “reduction in IL-1 induced COX-2 expression” value is given as “significant reduction”. Further, the “dose dependence of reduction in COX-2 expression” value in data set [1] (Table 2 and FIG. 3) is “dose-dependent reduction”. The “Mean COX-2 expression (MFI)” value in data set [2] (IL-1 + dexamethasone 1 nM + Compound 1 50 μM, control 0.7400, IL-1 49.37) is 6.013* MFI. The “enhancement of dexamethasone inhibition of IL-1-induced COX-2 expression” value in data set [2] (dexamethasone 1 nM + Compound 1 50 μM versus dexamethasone alone, P<0.05) is “significantly greater inhibition”. In addition, the “apoptotic cell numbers (Annexin V and propidium iodide positive)” value in data set [3] was “No significant increase”. Also, the “viable cell numbers (Annexin V and propidium iodide negative)” value in data set [3] is reported as “no significant decrease”. Further, the “Mean cpm (3H-thymidine incorporation)” value in data set [4] (S112 cells, MIF 50 ng/ml + compound 1 nM, untreated 3245, MIF alone 4415, n=9) was 2994* cpm. Moreover, the “inhibition of MIF-induced S112 human fibroblast proliferation” value in data set [4] (compound 1 nM pre-incubated with MIF, P<0.05) is reported as “significantly inhibited”.

With `OCCOC1(c2ccc(O)cc2)OCCO1` [Compound 2, 2-(2-hydroxyethoxy)-2-(4-hydroxyphenyl)-1,3-dioxolane], the “inhibition of IL-induced COX-2 expression, MFI” value in data set [1] (IL-1+cpd2 versus IL-1, P<0.05, FIG. 4) is on record as “Significant inhibition”. Moreover, the “reduction in antigen-specific T cell activation” value in data set [5] is reported as “significant dose-dependent reduction”.
